Laboratory results reported in patent publication US8569039B2, “Ethanol resistance Saccharomyces cerevisiae GP-01 by protoplast fusion, method for manufacturing thereof, method for manufacturing yeast containing high content of bio organic germanium by using Saccharomyces cerevisiae GP-01 and high water soluble sodium metagermanate as a germanium source” (Geranti Pharm Ltd., priority 2008, dated 2013).

Experiments:
[1] = system: yeast GP-01 (KCTC 11399BP); assay: Bio-germanium content in yeast by mixing ratio of yeast and Ge solution; type: cell-based, Saccharomyces Cerevisiae; conditions: for Bio-germanium content in yeast GP-01: 20 hours, pH 10, 40° C.
Protocol: (§1) In order to determine the content of bio-germanium in the yeast GP-01, 1 g of the cultivated and dried yeast GP-01 was added in 30 ml of nitric acid. The obtained sample was heated to be decomposed. After adjusting pH value to 6, 1 ml of the sample was mixed with 1 ml of phenylfluorone and 1 ml of cyclo nucleic acid. The obtained sample was stationary for 30 hours at 30° C. and then determined the content of germanium in the yeast GP-01 by using UV spectrophotometer at 525 nm.
The broth containing the ethanol-resistant yeast GP-01 as prepared in the Example 1 was centrifuged to collect the yeast. […] The obtained solutions were cultivated for 20 hours at pH 10 and temperature 40° C.
Also, as a control, the same procedure described in Example 3 was performed, except that a solution of (inorganic) germanium dioxide (GeO2) was used instead of sodium metagermanate (Na2GeO3).
The contents of germanium in the yeast GP-01 (KCTC 11399BP) was measured by the same method as Example 2.

[2] = Solubility of the germanium source; type: physicochemical; conditions: 25° C.
Protocol: The solution of Sodium Metagermanate (Na2GeO3) was prepared by dissolving sodium carbonate (Na2CO3, Kanto, Japan) in water, adding germanium dioxide (GeO2, PPM GmbH, Germany) at the equivalent ratio of 1:1 against the said sodium carbonate, and sterilized the obtained solution.

[3] = system: yeast GP-01 (KCTC11399BP); assay: Germanium inoculated into the yeast by pH, temperature and surfactant concentration; type: cell-based, Saccharomyces Cerevisiae; conditions: 5,000 ppm germanium, ratio 1:0.5, 20 hours
Protocol: as §1
The broth containing the ethanol-resistant yeast GP-01 as prepared in the Example 1 was centrifuged to collect the yeast. At the ratio of 1:0.5, the collected yeast was added in the solution of sodium metagermanate (Na2GeO3) having 5,000 ppm of germanium. After adding surfactant (Twin-80), the obtained solution was cultivated for 20 hours by various conditions for pH, temperature or the broth containing germanium.
The pH was regulated by using 1N NaOH, and a number of tests were repeatedly performed under different temperatures and concentrations of surfactant.
When measuring the content of germanium, the broth without adding the surfactant was used as a control.
The measurement of content of bio-germanium in the yeast GP-01 (KCTC11399BP) of the present invention was made by the same method as Example 2.

[4] = system: Saccharomyces Cerevisiae (KCTC 7904); assay: Bio-germanium content inoculated into the yeast by content of germanium in the solution; type: cell-based; conditions: KCTC7904; for Bio-germanium content inoculated into the yeast: 20 hours, pH 10, 40° C.
[5] = system: yeast GP-01 (KCTC11399BP); assay: as above; type: cell-based, Saccharomyces Cerevisiae; conditions: for Bio-germanium content inoculated into the yeast: 20 hours, pH 10, 40° C.
Protocol: The broth medium containing the mutated Saccharomyces Cerevisiae, yeast GP-01 (KCTC11399BP), was centrifuged to collect the palletized yeast. The collected pelletized yeast was added in each of the solutions of sodium metagermanate (Na2GeO3) with different concentrations of germanium. The prepared solutions were cultivated for 20 hours at pH 10 and temperature 40° C.
In order to determine the content of bio-germanium in the yeast GP-01, 1 g of the cultivated and dried yeast GP-01 was added in 30 ml of nitric acid. The obtained sample was heated to be decomposed. After adjusting pH value to 6, 1 ml of the sample was mixed with 1 ml of phenylfluorone and 1 ml of cyclo nucleic acid. The obtained sample was stationary for 30 hours at 30° C. and then determined the content of germanium in the yeast GP-01 by using UV spectrophotometer at 525 nm. […]

[6] = germanium in the solution 3,000 ppm
[7] = germanium in the solution 4,000 ppm
[8] = germanium in the solution 5,000 ppm
[9] = germanium in the solution 10,000 ppm
[10] = germanium in the solution 15,000 ppm

With `[Na+].[Na+].[O]=[Ge]([O-])[O-]` [Na2GeO3 solution, sodium metagermanate] the “increase of content of bio-germanium versus germanium dioxide” value ([1]; Na2GeO3 solution compared with germanium dioxide, Table 3) was 2-4 times, the “Bio-germanium content in yeast GP-01” value ([1]; mixing ratio yeast GP-01:Ge solution 1:0.2) was 4,350 ppm and the “Bio-germanium content in yeast GP-01” value ([1]; mixing ratio yeast GP-01:Ge solution 1:0.5) was 14,800 ppm. The “Bio-germanium content in yeast GP-01” value ([1]; mixing ratio yeast GP-01:Ge solution 1:1) was 12,600 ppm, the “Bio-germanium content in yeast GP-01” value ([1]; mixing ratio yeast GP-01:Ge solution 1:2) was 9,760 ppm and the “Bio-germanium content in yeast GP-01” value ([1]; mixing ratio yeast GP-01:Ge solution 1:3) was 8,720 ppm. The solubility [2] was 500 mg/mL, the Bio-germanium inoculated ([3]; Control: broth without adding the surfactant) was 1,720 ppm and the Bio-germanium inoculated ([3]; pH 4.0) was 2,190 ppm. For the same molecule, the Bio-germanium inoculated ([3]; pH 5.0) was 3,254 ppm, the Bio-germanium inoculated ([3]; pH 6.0) was 5,320 ppm and the Bio-germanium inoculated ([3]; pH 6.5) was 5,790 ppm. The Bio-germanium inoculated ([3]; pH 7.0) was 9,750 ppm, the Bio-germanium inoculated ([3]; pH 8.0) was 10,700 ppm and the Bio-germanium inoculated ([3]; pH 9.0) was 15,200 ppm. For the same molecule, the Bio-germanium inoculated ([3]; pH 10.0) was 16,300 ppm, the Bio-germanium inoculated ([3]; pH 11.0) was 9,320 ppm and the Bio-germanium inoculated ([3]; surfactant Twin-80 0.1 wt %) was 8,743 ppm. For the same molecule, the Bio-germanium inoculated ([3]; surfactant Twin-80 0.2 wt %) was 16,250 ppm, the Bio-germanium inoculated ([3]; surfactant Twin-80 0.3 wt %) was 12,530 ppm and the Bio-germanium inoculated ([3]; surfactant Twin-80 0.4 wt %) was 9,670 ppm. For the same molecule, the Bio-germanium inoculated ([3]; surfactant Twin-80 0.5 wt %) was 7,624 ppm, the Bio-germanium inoculated ([3]; surfactant Twin-80 0.6 wt %) was 5,670 ppm and the Bio-germanium inoculated ([3]; surfactant Twin-80 0.7 wt %) was 4,830 ppm. The Bio-germanium inoculated ([3]; surfactant Twin-80 0.8 wt %) was 2,700 ppm, the Bio-germanium inoculated ([3]; temperature 20 ° C.) was 3,102 ppm and the Bio-germanium inoculated ([3]; temperature 30 ° C.) was 9,648 ppm. For the same molecule, the Bio-germanium inoculated ([3]; temperature 35 ° C.) was 13,250 ppm, the Bio-germanium inoculated ([3]; temperature 40 ° C.) was 14,700 ppm and the Bio-germanium inoculated ([3]; temperature 45 ° C.) was 8,350 ppm. The Bio-germanium inoculated ([3]; temperature 50 ° C.) was 4,564 ppm, the “Yield (%) of germanium inoculated” value [4, 6] was 32% and the “Bio-germanium content inoculated into the yeast” value [4, 6] was 950 ppm. For the same molecule, the “Yield (%) of germanium inoculated” value [4, 7] was 38%, the “Bio-germanium content inoculated into the yeast” value [4, 7] was 1,500 ppm and the “Yield (%) of germanium inoculated” value [4, 8] was 47%. For the same molecule, the “Bio-germanium content inoculated into the yeast” value [4, 8] was 2,370 ppm, the “Yield (%) of germanium inoculated” value [4, 9] was 45% and the “Bio-germanium content inoculated into the yeast” value [4, 9] was 4,500 ppm. For the same molecule, the “Yield (%) of germanium inoculated” value [4, 10] was 38%, the “Bio-germanium content inoculated into the yeast” value [4, 10] was 5,730 ppm and the “Yield (%) of germanium inoculated” value [5, 6] was 155%. The “Bio-germanium content inoculated into the yeast” value [5, 6] was 4,640 ppm, the “Yield (%) of germanium inoculated” value [5, 7] was 171% and the “Bio-germanium content inoculated into the yeast” value [5, 7] was 6,840 ppm. For the same molecule, the “Yield (%) of germanium inoculated” value [5, 8] was 194%, the “Bio-germanium content inoculated into the yeast” value [5, 8] was 9,700 ppm and the “Yield (%) of germanium inoculated” value [5, 9] was 130%. The “Bio-germanium content inoculated into the yeast” value [5, 9] was 13,000 ppm, the “Yield (%) of germanium inoculated” value [5, 10] was 110% and the “Bio-germanium content inoculated into the yeast” value [5, 10] was 16,500 ppm.
